Assay results taken from US20240293551A1, “USE OF ST-TYPE LIPID COMPOUNDS IN PREPARATION OF NUCLEIC ACID DELIVERY REAGENT AND RELATED PRODUCT” (INSTITUTE OF BASIC MEDICAL SCIENCES CHINESE ACADEMY OF …, priority 2021, published 2024).

Test system: PGY-sRNA-26
Assay: In vivo delivery study of lipid-nucleic acid mixture (oral gavage, RT-qPCR of PGY-sRNA-26 in tissues)
Design: species or system mouse
Conditions: C57BL/6 mice, gavage, 100 μg lipid: 10 nmol PGY-sRNA-26, 12 hours; for delivery efficacy over each tissue and blood tested (broad-spectrum delivery): all tissues and blood tested; for oral delivery of single-stranded sRNA nucleic acids into mouse intestinal tissue: intestine
How it was run: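 C57BL/6 male mice (~6 weeks, 20-24 g), fasted 12 h, were gavaged with 10 nmol 3′-methylated PGY-sRNA-26 mixed with 100 μg lipid (heated 90° C. 15 min), versus saline or free sRNA (n=4 each). After 12 h, blood and tissues were Trizol-extracted; sRNA quantified by stem-loop RT-qPCR relative to U6.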

CCCCC(=O)O[C@H]1CC[C@H]2[C@@H]3CCc4cc(O)ccc4[C@H]3CC[C@]12C [Lipid 556]
exhibited the best delivery efficacy: delivery efficacy over each tissue and blood tested (broad-spectrum delivery)
can effectively orally deliver: oral delivery of single-stranded sRNA nucleic acids into mouse blood | oral delivery of single-stranded sRNA nucleic acids into mouse brain tissue | oral delivery of single-stranded sRNA nucleic acids into mouse femur | oral delivery of single-stranded sRNA nucleic acids into mouse heart tissue | oral delivery of single-stranded sRNA nucleic acids into mouse intestinal tissue | oral delivery of single-stranded sRNA nucleic acids into mouse kidney tissue | oral delivery of single-stranded sRNA nucleic acids into mouse liver tissue | oral delivery of single-stranded sRNA nucleic acids into mouse lung tissue | oral delivery of single-stranded sRNA nucleic acids into mouse spleen tissue | oral delivery of single-stranded sRNA nucleic acids into mouse stomach tissue

C[C@@H]1CC[C@@]2(OC1)O[C@H]1C[C@H]3[C@@H]4CC=C5C[C@@H](O)CC[C@]5(C)[C@H]4CC[C@]3(C)[C@H]1[C@@H]2C [Lipid 589]
exhibited the best delivery efficacy: delivery efficacy over each tissue and blood tested (broad-spectrum delivery)
can effectively orally deliver: oral delivery of single-stranded sRNA nucleic acids into mouse blood | oral delivery of single-stranded sRNA nucleic acids into mouse brain tissue | oral delivery of single-stranded sRNA nucleic acids into mouse femur | oral delivery of single-stranded sRNA nucleic acids into mouse heart tissue | oral delivery of single-stranded sRNA nucleic acids into mouse intestinal tissue | oral delivery of single-stranded sRNA nucleic acids into mouse kidney tissue | oral delivery of single-stranded sRNA nucleic acids into mouse liver tissue | oral delivery of single-stranded sRNA nucleic acids into mouse lung tissue | oral delivery of single-stranded sRNA nucleic acids into mouse spleen tissue | oral delivery of single-stranded sRNA nucleic acids into mouse stomach tissue

C=C1/C(=C\C=C2/CCC[C@]3(C)[C@@H]([C@H](C)/C=C/[C@@H](O)C4CC4)CC[C@@H]23)C[C@@H](O)C[C@@H]1O [Lipid 554]
exhibited the best delivery efficacy: delivery efficacy over each tissue and blood tested (broad-spectrum delivery)
can effectively orally deliver: oral delivery of single-stranded sRNA nucleic acids into mouse blood | oral delivery of single-stranded sRNA nucleic acids into mouse brain tissue | oral delivery of single-stranded sRNA nucleic acids into mouse femur | oral delivery of single-stranded sRNA nucleic acids into mouse heart tissue | oral delivery of single-stranded sRNA nucleic acids into mouse intestinal tissue | oral delivery of single-stranded sRNA nucleic acids into mouse kidney tissue | oral delivery of single-stranded sRNA nucleic acids into mouse liver tissue | oral delivery of single-stranded sRNA nucleic acids into mouse lung tissue | oral delivery of single-stranded sRNA nucleic acids into mouse spleen tissue | oral delivery of single-stranded sRNA nucleic acids into mouse stomach tissue

C=C1/C(=C\C=C2/CCC[C@]3(C)[C@@H]([C@H](C)OCCC(C)(C)O)CC[C@@H]23)C[C@@H](O)C[C@@H]1O [Lipid 540]
exhibited the best delivery efficacy: delivery efficacy over each tissue and blood tested (broad-spectrum delivery)
can effectively orally deliver: oral delivery of single-stranded sRNA nucleic acids into mouse blood | oral delivery of single-stranded sRNA nucleic acids into mouse brain tissue | oral delivery of single-stranded sRNA nucleic acids into mouse femur | oral delivery of single-stranded sRNA nucleic acids into mouse heart tissue | oral delivery of single-stranded sRNA nucleic acids into mouse intestinal tissue | oral delivery of single-stranded sRNA nucleic acids into mouse kidney tissue | oral delivery of single-stranded sRNA nucleic acids into mouse liver tissue | oral delivery of single-stranded sRNA nucleic acids into mouse lung tissue | oral delivery of single-stranded sRNA nucleic acids into mouse spleen tissue | oral delivery of single-stranded sRNA nucleic acids into mouse stomach tissue

C[C@]12CC[C@H]3[C@@H](CCC4=CC(=O)CC[C@@H]43)[C@@H]1CC[C@@H]2O [Lipid 562]
can effectively orally deliver: oral delivery of single-stranded sRNA nucleic acids into mouse blood | oral delivery of single-stranded sRNA nucleic acids into mouse brain tissue | oral delivery of single-stranded sRNA nucleic acids into mouse femur | oral delivery of single-stranded sRNA nucleic acids into mouse heart tissue | oral delivery of single-stranded sRNA nucleic acids into mouse intestinal tissue | oral delivery of single-stranded sRNA nucleic acids into mouse liver tissue | oral delivery of single-stranded sRNA nucleic acids into mouse lung tissue | oral delivery of single-stranded sRNA nucleic acids into mouse spleen tissue | oral delivery of single-stranded sRNA nucleic acids into mouse stomach tissue
